The assay relates to AMPK. The experiment in a line: AMPK enzyme activity assay (Delfia technology, AMARA peptide substrate). It is filed as biochemical. The note with it: compound at 30 μM vs AMP at 200 μM. How it is done: The following biological test allows the determination of the efficacy of compounds of formula (1) onto AMPK protein.
AMPK enzyme activities were assayed by using a Delfia technology. AMPK enzyme activities were carried out in microtiter plates in the presence of a synthetic peptide substrate (AMARAASAAALARRR, the “AMARA” peptide) and activators in serial dilutions. Reactions were initiated by the addition of AMPK. Enzyme activity was assayed by using an anti-phosphoserine antibody to measure the quantity of phosphate incorporated into the AMARAA.
No: Number of the molecule
Activity: Ratio between the % of control (basal activity) of compound of formula (1) at 30 μM and the % of control (basal activity) of AMP (natural substrate) at 200 μM.

“2,5-difluoro-3-(2-naphthyl)-5-phenyl-7H-thieno[2,3-b]pyridine-4,6-dione [No 162]”: the “Activity: Ratio between the % of control (basal activity) of compound of formula (1) at 30 μM and the % of control (basal activity) of AMP (natural substrate) at 200 μM” value (shortened to “Activity: Ratio between the % of control”) is given as “C (C≧75%)”.

As for “2-chloro-5-(3-methoxyphenyl)-5-methyl-3-(p-tolyl)-7H-thieno[2,3-b]pyridine-4,6-dione [No 209]”, the “Activity: Ratio between the % of control” value is given as “A (0%<A<50%)”.

As for “2-chloro-5-fluoro-3-(5-fluoro-2-hydroxy-phenyl)-5-phenyl-7H-thieno[2,3-b]pyridine-4,6-dione [No 221]”, the “Activity: Ratio between the % of control” value is on record as “C (C≧75%)”.

Regarding “2-chloro-5-methyl-3,5-bis(p-tolyl)-7H-thieno[2,3-b]pyridine-4,6-dione [No 154]”, the “Activity: Ratio between the % of control” value is “A (0%<A<50%)”.

Turning to “5-fluoro-3-(2-naphthyl)-5-phenyl-7H-thieno[2,3-b]pyridine-4,6-dione [No 161]”, the “Activity: Ratio between the % of control” value is “C (C≧75%)”.

Turning to `CC1(c2ccccc2)C(=O)Nc2sc(Cl)c(-c3ccc4ccccc4c3O)c2C1=O` (stereo not shown) [No 7, 2-chloro-3-(1-hydroxy-2-naphthyl)-5-methyl-5-phenyl-7H-thieno[2,3-b]pyridine-4,6-dione], the “Activity: Ratio between the % of control” value is reported as “A (0%<A<50%)”.

Take `CC1(c2ccccc2)C(=O)Nc2scc(-c3ccc4ccccc4c3O)c2C1=O` (stereo not shown) [No 8, 3-(1-hydroxy-2-naphthyl)-5-methyl-5-phenyl-7H-thieno[2,3-b]pyridine-4,6-dione]: the “Activity: Ratio between the % of control” value is reported as “A (0%<A<50%)”.

For the compound `O=C1Nc2scc(-c3ccccc3)c2C(=O)C1(c1ccccc1)c1ccccc1` [No 9, 3,5,5-triphenyl-7H-thieno[2,3-b]pyridine-4,6-dione], the “Activity: Ratio between the % of control” value was “A (0%<A<50%)”.

For `O=C1Nc2scc(-c3ccccc3)c2C(=O)C1(Cc1ccccc1)c1ccccc1` (stereo not shown) [No 10, 5-benzyl-3,5-diphenyl-7H-thieno[2,3-b]pyridine-4,6-dione], the “Activity: Ratio between the % of control” value was “A (0%<A<50%)”.

With `CCC1(c2ccccc2)C(=O)Nc2scc(-c3ccccc3)c2C1=O` (stereo not shown) [No 11, 5-ethyl-3,5-diphenyl-7H-thieno[2,3-b]pyridine-4,6-dione], the “Activity: Ratio between the % of control” value was “A (0%<A<50%)”.

`CCOc1c(F)ccc(-c2c(Cl)sc3c2C(=O)C(C)(c2ccccc2)C(=O)N3)c1OC` (stereo not shown) [No 12, 2-chloro-3-(3-ethoxy-4-fluoro-2-methoxy-phenyl)-5-methyl-5-phenyl-7H-thieno[2,3-b]pyridine-4,6-dione]: the “Activity: Ratio between the % of control” value is given as “A (0%<A<50%)”.

For the compound `COc1c(-c2c(Cl)sc3c2C(=O)C(C)(c2ccccc2)C(=O)N3)ccc(F)c1F` (stereo not shown) [No 13, 2-chloro-3-(3,4-difluoro-2-methoxy-phenyl)-5-methyl-5-phenyl-7H-thieno[2,3-b]pyridine-4,6-dione], the “Activity: Ratio between the % of control” value is “A (0%<A<50%)”.

On to `CC1(c2ccccc2)C(=O)Nc2scc(-c3ccc(F)c(F)c3O)c2C1=O` (stereo not shown) [No 14, 3-(3,4-difluoro-2-hydroxy-phenyl)-5-methyl-5-phenyl-7H-thieno[2,3-b]pyridine-4,6-dione], for which the “Activity: Ratio between the % of control” value was “A (0%<A<50%)”.

Regarding `COc1ccc(C2(C)C(=O)Nc3sc(Cl)c(-c4ccc(F)cc4O)c3C2=O)cc1` (stereo not shown) [No 15, 2-chloro-3-(4-fluoro-2-hydroxy-phenyl)-5-(4-methoxy-phenyl)-5-methyl-7H-thieno[2,3-b]pyridine-4,6-dione], the “Activity: Ratio between the % of control” value is on record as “A (0%<A<50%)”.

In the case of `CCc1ccc(-c2csc3c2C(=O)C(C)(c2ccccc2)C(=O)N3)c(OC)c1` (stereo not shown) [No 16, 3-(4-ethyl-2-methoxy-phenyl)-5-methyl-5-phenyl-7H-thieno[2,3-b]pyridine-4,6-dione], the “Activity: Ratio between the % of control” value is “A (0%<A<50%)”.

In the case of `CCOc1ccc(C2(C)C(=O)Nc3scc(-c4ccc(C)cc4F)c3C2=O)cc1` (stereo not shown) [No 17, 5-(4-ethoxyphenyl)-3-(2-fluoro-4-methyl-phenyl)-5-methyl-7H-thieno[2,3-b]pyridine-4,6-dione], the “Activity: Ratio between the % of control” value is “A (0%<A<50%)”.

Regarding `CC1(C)C(=O)Nc2scc(-c3ccccc3)c2C1=O` [No 18, 5,5-dimethyl-3-phenyl-7H-thieno[2,3-b]pyridine-4,6-dione], the “Activity: Ratio between the % of control” value was “A (0%<A<50%)”.

For the compound `CCOc1ccc(C2(C)C(=O)Nc3sc(C)c(-c4ccc(F)c(C)c4O)c3C2=O)cc1` (stereo not shown) [No 19, 5-(4-ethoxyphenyl)-3-(4-fluoro-2-hydroxy-3-methyl-phenyl)-2,5-dimethyl-7H-thieno[2,3-b]pyridine-4,6-dione], the “Activity: Ratio between the % of control” value is reported as “A (0%<A<50%)”.

For the compound `O=C1Nc2sc(Cl)c(-c3ccccc3)c2C(=O)C1(F)c1ccccc1` (stereo not shown) [No 20, 2-chloro-5-fluoro-3,5-diphenyl-7H-thieno[2,3-b]pyridine-4,6-dione], the “Activity: Ratio between the % of control” value is given as “C (C≧75%)”.

In the case of `CCOc1ccc(C2(C)C(=O)Nc3scc(-c4ccc(Cl)cc4OC)c3C2=O)cc1` (stereo not shown) [No 21, 3-(4-chloro-2-methoxy-phenyl)-5-(4-ethoxyphenyl)-5-methyl-7H-thieno[2,3-b]pyridine-4,6-dione], the “Activity: Ratio between the % of control” value was “A (0%<A<50%)”.

As to `CCOc1ccc(C2(C)C(=O)Nc3sc(Cl)c(-c4ccc(C)cc4F)c3C2=O)cc1` (stereo not shown) [No 22, 2-chloro-5-(4-ethoxyphenyl)-3-(2-fluoro-4-methyl-phenyl)-5-methyl-7H-thieno[2,3-b]pyridine-4,6-dione], the “Activity: Ratio between the % of control” value was “B (50%≦B<75%)”.

For the compound `CCOc1ccc(C2(C)C(=O)Nc3scc(-c4ccc(C)c(F)c4O)c3C2=O)cc1` (stereo not shown) [No 23, 5-(4-ethoxyphenyl)-3-(3-fluoro-2-hydroxy-4-methyl-phenyl)-5-methyl-7H-thieno[2,3-b]pyridine-4,6-dione], the “Activity: Ratio between the % of control” value is “A (0%<A<50%)”.

`Cc1ccc(-c2csc3c2C(=O)C(C)(c2ccc(O)cc2)C(=O)N3)c(O)c1F` (stereo not shown) [No 24, 3-(3-fluoro-2-hydroxy-4-methyl-phenyl)-5-(4-hydroxy-phenyl)-5-methyl-7H-thieno[2,3-b]pyridine-4,6-dione]: the “Activity: Ratio between the % of control” value was “A (0%<A<50%)”.

Regarding `O=C1Nc2scc(-c3ccc(F)cc3O)c2C(=O)C1(F)c1ccccc1` (stereo not shown) [No 25, 5-fluoro-3-(4-fluoro-2-hydroxy-phenyl)-5-phenyl-7H-thieno[2,3-b]pyridine-4,6-dione], the “Activity: Ratio between the % of control” value is “C (C≧75%)”.

Consider `CC1(c2ccccc2)C(=O)Nc2sc(Cl)c(-c3ccc(F)cc3)c2C1=O` (stereo not shown) [No 26, 2-chloro-3-(4-fluorophenyl)-5-methyl-5-phenyl-7H-thieno[2,3-b]pyridine-4,6-dione], for which the “Activity: Ratio between the % of control” value is listed as “A (0%<A<50%)”.

In the case of `CC1(c2cccc(F)c2)C(=O)Nc2sc(Cl)c(-c3ccccc3)c2C1=O` (stereo not shown) [No 27, 2-chloro-5-(3-fluorophenyl)-5-methyl-3-phenyl-7H-thieno[2,3-b]pyridine-4,6-dione], the “Activity: Ratio between the % of control” value is on record as “A (0%<A<50%)”.

Take `CC1(c2ccccc2F)C(=O)Nc2sc(Cl)c(-c3ccccc3)c2C1=O` (stereo not shown) [No 28, 2-chloro-5-(2-fluorophenyl)-5-methyl-3-phenyl-7H-thieno[2,3-b]pyridine-4,6-dione]: the “Activity: Ratio between the % of control” value is “A (0%<A<50%)”.

`CC1(c2ccccc2)C(=O)Nc2sc(Cl)c(-c3cccc(F)c3)c2C1=O` (stereo not shown) [No 29, 2-chloro-3-(3-fluorophenyl)-5-methyl-5-phenyl-7H-thieno[2,3-b]pyridine-4,6-dione]: the “Activity: Ratio between the % of control” value was “C (C≧75%)”.

As for `CC1(c2ccccc2)C(=O)Nc2sc(Cl)c(-c3ccccc3F)c2C1=O` (stereo not shown) [No 30, 2-chloro-3-(2-fluorophenyl)-5-methyl-5-phenyl-7H-thieno[2,3-b]pyridine-4,6-dione], the “Activity: Ratio between the % of control” value is “A (0%<A<50%)”.

In the case of `Cc1ccc(C2(C)C(=O)Nc3sc(Cl)c(-c4ccccc4)c3C2=O)cc1` (stereo not shown) [No 31, 2-chloro-5-methyl-3-phenyl-5-(p-tolyl)-7H-thieno[2,3-b]pyridine-4,6-dione], the “Activity: Ratio between the % of control” value was “A (0%<A<50%)”.

On to `CC1(c2ccc(F)cc2)C(=O)Nc2sc(Cl)c(-c3ccccc3)c2C1=O` (stereo not shown) [No 32, 2-chloro-5-(4-fluorophenyl)-5-methyl-3-phenyl-7H-thieno[2,3-b]pyridine-4,6-dione], for which the “Activity: Ratio between the % of control” value was “A (0%<A<50%)”.
